Where two headings read alike, the source gives them in different places.
How the values were obtained:
[1] = system: herpes simplex I (HSV-1, strain VRIII); experiment: Inactivation of herpes simplex I (viral infectivity titer, CPE in Vero cells); type: cell-based; details: for Viral infectivity titer when contacted for an hour (TCID50/25 µl): room temperature, composition 0.5% butyl p-oxybenzoate
[2] = system: influenza virus type B (FluV-B, strain B/Lee/40); type: cell-based
mice = details: p.o.; cited from earlier work
Type HIV-1 (LAI strain) = experiment: Inactivation of HIV (infectivity titer in MT-4 cells); type: cell-based; details: summary of Table 6, concentration-dependent
[3] = Composition : Viral solution 1 : 4, 1 hour
[4] = Composition : Viral solution 1 : 9, 1 hour
[5] = Composition : Viral solution 1 : 99, 1 hour
[6] = mixing ratio 1:9, Contact Time 0 minute
[7] = mixing ratio 1:9, Contact Time 5 minutes
[8] = mixing ratio 1:9, Contact Time 15 minutes
[9] = mixing ratio 1:9, Contact Time 30 minutes
[10] = mixing ratio 1:9, Contact Time 1 hour

Row | SMILES | Viral infectivity titer when contacted for an hour (TCID50/25 µl) [1, 3] | Viral infectivity titer when contacted for an hour (TCID50/25 µl) [1, 4] | Viral infectivity titer when contacted for an hour (TCID50/25 µl) [1, 5] | Viral infectivity titer for various contact time periods (TCID50/25 µl) [1, 6] | Viral infectivity titer for various contact time periods (TCID50/25 µl) [1, 7] | Viral infectivity titer for various contact time periods (TCID50/25 µl) [1, 8] | Viral infectivity titer for various contact time periods (TCID50/25 µl) [1, 9] | Viral infectivity titer for various contact time periods (TCID50/25 µl) [1, 10] | Viral infectivity titer when contacted for an hour (TCID50/25 µl) ([2]; FluV-B, Composition : Viral solution 1 : 99, 1 hour, room temperature, composition 0.5% butyl p-oxybenzoate) | Acute toxicity (LD-50) (mice) [mg/kg] | inactivation effect against HIV (Type HIV-1 (LAI strain)) | Viral infectivity titer for various contact time periods (TCID50/25 µl) ([2]; 0.5 h) | Viral infectivity titer for various contact time periods (TCID50/25 µl) ([2]; 1 h) | Viral infectivity titer when contacted for an hour (TCID50/25 µl) ([2]; 1 h)
1 | CCCCOC(=O)c1ccc(O)cc1 [butyl ester, butyl p-oxybenzoate] | ≤3.2 x 10^1 TCID50/25 µl | ≤3.2 x 10^0 TCID50/25 µl | 1.8 x 10^4 TCID50/25 µl | 5.6 x 10^3 TCID50/25 µl | 3.2 x 10^0 TCID50/25 µl | 3.2 x 10^0 TCID50/25 µl | 3.2 x 10^0 TCID50/25 µl | 3.2 x 10^0 TCID50/25 µl | 3.2 x 10^3 TCID50/25 µl | 17000 | – | – | – | –
2 | CCOC(=O)c1ccc(O)cc1 [ethyl ester, ethyl p-oxybenzoate] | – | – | – | – | – | – | – | – | – | 5000 | potent inactivation effect | – | – | –
3 | CCCOC(=O)c1ccc(O)cc1 [propyl ester, Propyl p-oxybenzoate] | – | – | – | – | – | – | – | – | – | 8000 | – | – | – | –
4 | CCO [70% Ethanol, Ethanol, reference compound] | 3.2 x 10^4 TCID50/25 µl | 5.6 x 10^4 TCID50/25 µl | 1.0 x 10^5 TCID50/25 µl | 3.2 x 10^4 TCID50/25 µl | 3.2 x 10^4 TCID50/25 µl | 1.8 x 10^4 TCID50/25 µl | 1.8 x 10^3 TCID50/25 µl | 5.6 x 10^4 TCID50/25 µl | – | – | – | 3.2 x 10^3 TCID50/25 µl | 5.6 x 10^3 TCID50/25 µl | 3.2 x 10^3 TCID50/25 µl

Reference: patent publication EP0819380A1, “Bacteriocidal, antibacterial and bacteriostatic composition” (priority 1996, dated 1998)
